Where “and” joins values, the source holds several entries; their conditions need not be identical. Equal entries are not always repeated.
Columns and labels:
[1] = target: T1, (Ec)FtsY-NG (Escherichia coli, UniProt P10121); experiment: Microscale thermophoresis (MST) ligand binding; set-up: species or system E. coli; details: NG domain labeled with NT 647, 21 °C
T1 construct: purified NG domains of (Ec)Ffh, (Ec)FtsY and (Bs)Ffh; His6 (C); made in house; host or cells: E. coli BL21 (DE3)
Description: (§1) Ligand binding assays with purified NG domains of (Ec)Ffh, (Ec)FtsY and (Bs)Ffh proteins were carried out by microscale thermophoresis (MST)[80]. All experiments were performed on a Monolith NT.115 (NanoTemper Technologies GmbH, Munich, Germany; software: NanoTemper Control Version 2.0.2.29) at 21 °C (red LED power was set to 50–100% and infrared laser power to 75%). After labeling of primary amines within (Ec)Ffh, (Ec)FtsY, and (Bs)Ffh (50 µM each) with the dye NT 647 (according to the manufacturers protocol), the proteins were re-buffered in SEC buffer containing 20 mM HEPES-Na, 20 mM KCl, 20 mM MgCl2, 200 mM NaCl (final pH 7.5), 10 mg ml^−1 BSA and 0.007% Tween. Two-hundred nanomolar of (Ec)Ffh, (Ec)FtsY, and (Bs)Ffh were titrated with GDP, GTP, ppGpp, and pppGpp starting from a concentration ranging between 0.75 and 3 mM, respectively. At least six independent MST experiments per ligand and protein were recorded at 680 nm and analyzed using NanoTemper Analysis version 1.5.37 and 1.2.009, and Origin8G software suits.

[2] = target: T2, (Ec)Ffh-NG (Escherichia coli, UniProt P0AGD7); experiment: Microscale thermophoresis (MST) ligand binding; set-up: species or system E. coli; details: NG domain labeled with NT 647, 21 °C
T2 construct: purified NG domains of (Ec)Ffh, (Ec)FtsY and (Bs)Ffh; His6 (C); made in house; host or cells: E. coli BL21 (DE3)
T2 sequence (P0AGD7 1-296): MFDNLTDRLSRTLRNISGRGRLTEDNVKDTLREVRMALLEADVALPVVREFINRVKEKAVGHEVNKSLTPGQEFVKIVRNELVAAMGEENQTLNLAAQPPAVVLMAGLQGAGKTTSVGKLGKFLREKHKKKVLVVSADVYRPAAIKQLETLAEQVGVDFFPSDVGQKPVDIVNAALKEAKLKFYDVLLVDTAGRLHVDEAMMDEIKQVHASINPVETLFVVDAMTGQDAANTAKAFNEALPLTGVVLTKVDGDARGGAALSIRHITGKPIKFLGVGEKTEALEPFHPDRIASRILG
Description: as §1

[3] = target: T1, (Ec)FtsY-NG; experiment: Isothermal titration calorimetry (ITC) of nucleotide binding; set-up: species or system E. coli; details: NG domain, 25 °C, one set of sites model
Description: (§2) Ligands and proteins (purified NG domains of (Ec)Ffh, (Ec)FtsY and (Bs)Ffh) were diluted with a buffer containing 20 mM HEPES-Na (pH 7.5), 200 mM NaCl, 20 mM MgCl2 and 20 mM KCl. The NG domains of (Ec)Ffh, (Ec)FtsY and (Bs)Ffh were titrated in the sample-cell at a nominal concentration of 25 µM each. The nucleotides GDP, GTP, ppGpp and pppGpp (Jena Bioscience, Germany) were placed in the syringe and their concentrations were predetermined by absorbance at 252 nm to saturate the protein samples during the titrations. All the measurements were performed at 25 °C with the instrument MicroCal PEAQ-ITC (©Malvern Panalytical) with a method consisting of 13 injections (first 0.4 µL, and the rest 3 µL each) and 150 s of spacing. The raw data (see source) were processed with the MicroCal PEAQ-ITC Analysis Software (©Malvern Panalytical) using the “one set of sites” models.

[4] = target: T2, (Ec)Ffh-NG; experiment: as above; set-up: species or system E. coli
Description: as §2

[5] = target: T3, (Bs)Ffh-NG (Bacillus subtilis, UniProt P37105); experiment: as above; set-up: species or system B. subtilis; details: NG domain, 25 °C, one set of sites model
T3 construct: purified NG domains of (Ec)Ffh, (Ec)FtsY and (Bs)Ffh; His6 (N); made in house; host or cells: E. coli Rosetta pLysS
T3 sequence (P37105 1-297 limits assumed): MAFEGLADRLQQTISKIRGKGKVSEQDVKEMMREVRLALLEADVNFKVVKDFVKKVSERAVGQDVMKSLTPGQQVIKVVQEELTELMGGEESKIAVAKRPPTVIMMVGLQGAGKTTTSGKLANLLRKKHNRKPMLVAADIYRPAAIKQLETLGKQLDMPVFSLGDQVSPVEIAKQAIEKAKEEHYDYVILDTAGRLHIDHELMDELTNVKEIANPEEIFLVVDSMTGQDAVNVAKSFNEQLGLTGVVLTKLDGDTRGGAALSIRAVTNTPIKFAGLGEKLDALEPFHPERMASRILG
Description: as §2

[6] = target: T3, (Bs)Ffh-NG; experiment: Microscale thermophoresis (MST) ligand binding; set-up: species or system B. subtilis; details: NG domain labeled with NT 647, 21 °C
Description: as §1

T1 sequence (P10121 197-497): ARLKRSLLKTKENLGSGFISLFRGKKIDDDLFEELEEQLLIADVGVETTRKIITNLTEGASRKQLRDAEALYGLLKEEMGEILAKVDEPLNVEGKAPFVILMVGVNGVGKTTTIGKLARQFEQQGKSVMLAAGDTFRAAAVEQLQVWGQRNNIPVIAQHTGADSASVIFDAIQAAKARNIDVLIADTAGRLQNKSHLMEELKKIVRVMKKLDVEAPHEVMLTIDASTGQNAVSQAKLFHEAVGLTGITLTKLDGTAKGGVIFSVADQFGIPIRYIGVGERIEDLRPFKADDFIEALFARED

SMILES | Kd ([1]; read-out: (Ec)FtsY KD MST) | Kd [2] | Kd [3] [µM] | Kd [4] [µM] | Kd [5] [µM] | Kd [6] [µM] | Kd ([1]; (Ec)FtsY KD MST) [µM]
Nc1nc2c(ncn2[C@@H]2O[C@H](COP(=O)(O)OP(=O)(O)O)[C@@H](O)[C@H]2O)c(=O)[nH]1 [GDP] | 9.6 µM and 9.63 µM | 7.9 µM and 7.94 µM | 9.8 ± 1.1 | 2.2 ± 0.6 | 1.2 ± 0.7 | 9.23 ± 0.99 | 
Nc1nc2c(ncn2[C@@H]2O[C@H](COP(=O)(O)OP(=O)(O)OP(=O)(O)O)[C@@H](O)[C@H]2O)c(=O)[nH]1 [GTP] |  | 62.3 µM |  | 0.7 ± 0.5 | 0.6 ± 0.5 | 30.3 | 63.8

Reference: paper PMC8881573, “Inhibition of SRP-dependent protein secretion by the bacterial alarmone (p)ppGpp” (Nature Communications, 2022)
